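Assay format: 96-well plates, 48-hour exposure. GI50 = concentration required for 50% inhibition of growth.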 Active and inactive are the calls of the source. Rule as the data show it: active = GI50 up to about 1.1 µM and inactive = higher.
What was measured:
Experiment in all cases: DTP human tumour cell line panel, 48 h
NCI-H460 = system: NCI-H460
HCT-116 = system: HCT-116
NCI-H522 = system: NCI-H522
NCI/ADR-RES = system: NCI/ADR-RES
T47D = system: T47D
Hs-578T = system: Hs-578T
SNB-75 = system: SNB-75
SF-295 = system: SF-295
SK-MEL-2 = system: SK-MEL-2
EKVX = system: EKVX
SK-MEL-28 = system: SK-MEL-28
786-0 = system: 786-0
DU-145 = system: DU-145
RXF 393 = system: RXF 393
MDA-N = system: MDA-N
HCT-15 = system: HCT-15
SF-539 = system: SF-539
Malme-3M = system: Malme-3M
CCRF-CEM = system: CCRF-CEM

Structure (SMILES) | GI50 (NCI-H460) | GI50 (HCT-116) | GI50 (NCI-H522) | GI50 (NCI/ADR-RES) | GI50 (T47D) | GI50 (Hs-578T) | GI50 (SNB-75) | GI50 (SF-295) | GI50 (SK-MEL-2) | GI50 (EKVX) | GI50 (SK-MEL-28) | GI50 (786-0) | GI50 (DU-145) | GI50 (RXF 393) | GI50 (MDA-N) | GI50 (HCT-15) | GI50 (SF-539) | GI50 (Malme-3M) | GI50 (CCRF-CEM)
OCCN(CO)CO | > 100 µM (inactive) | > 100 µM (inactive) | > 100 µM (inactive) | > 100 µM (inactive) | > 100 µM (inactive) | > 100 µM (inactive) | > 100 µM (inactive) | > 100 µM (inactive) | > 100 µM (inactive) | > 100 µM (inactive) | > 100 µM (inactive) | 91.4 µM (inactive) | > 100 µM (inactive) | > 100 µM (inactive) | > 100 µM (inactive) | > 100 µM | > 100 µM (inactive) | > 100 µM (inactive) | 
Cc1ccc(S(=O)(=O)n2c3ccc(Br)cc3c3nc4ccccc4nc32)cc1 | > 100 µM (inactive) | > 100 µM (inactive) | 0.649 µM (active) | > 100 µM (inactive) | > 100 µM (inactive) | > 100 µM (inactive) | > 100 µM (inactive) | > 100 µM (inactive) | > 100 µM (inactive) |  | > 100 µM (inactive) | > 100 µM (inactive) | > 100 µM (inactive) | > 100 µM (inactive) | > 100 µM (inactive) | > 100 µM |  |  | > 100 µM (inactive)
NNc1nncc2[nH]nnc12 | > 100 µM (inactive) | > 100 µM (inactive) |  | > 100 µM (inactive) | > 100 µM (inactive) | > 100 µM (inactive) | 5.74 µM (inactive) | > 100 µM (inactive) | > 100 µM (inactive) | > 100 µM (inactive) | > 100 µM (inactive) | > 100 µM (inactive) | > 100 µM (inactive) | > 100 µM (inactive) | > 100 µM (inactive) | > 100 µM | > 100 µM (inactive) |  | > 100 µM (inactive)
CC1=CC(=O)/C(=C/Nc2nc(-c3ccc([N+](=O)[O-])cc3)cs2)C(=O)O1 | > 100 µM (inactive) | > 100 µM (inactive) | 31.6 µM (inactive) | > 100 µM (inactive) | > 100 µM (inactive) | > 100 µM (inactive) | > 100 µM (inactive) | > 100 µM (inactive) | > 100 µM (inactive) | > 100 µM (inactive) |  | > 100 µM (inactive) | > 100 µM (inactive) | 27.7 µM (inactive) | > 100 µM (inactive) | > 100 µM | > 100 µM (inactive) |  | 31.5 µM (inactive)
O=[N+]([O-])c1ccc(/N=N\c2c(O)ccc3ccccc23)c([N+](=O)[O-])c1 | > 100 µM (inactive) | > 100 µM (inactive) | > 100 µM (inactive) | > 100 µM (inactive) | > 100 µM (inactive) | > 100 µM (inactive) | > 100 µM (inactive) | > 100 µM (inactive) | > 100 µM (inactive) | > 60.4 µM (inactive) | > 100 µM (inactive) | > 100 µM (inactive) | > 100 µM (inactive) | > 100 µM (inactive) | > 100 µM (inactive) | > 100 µM |  | > 100 µM (inactive) | 29.4 µM (inactive)
C=C1C(=O)OC2C1CC(OC(C)=O)/C(C)=C/CCC1(C)OC21 (centres undefined) | > 100 µM (inactive) | > 100 µM (inactive) | > 100 µM (inactive) | > 100 µM (inactive) | > 100 µM (inactive) | > 100 µM (inactive) | > 100 µM (inactive) | > 100 µM (inactive) | > 100 µM (inactive) | > 100 µM (inactive) | > 100 µM (inactive) | > 100 µM (inactive) | > 100 µM (inactive) |  | > 100 µM (inactive) | > 100 µM | > 100 µM (inactive) | > 100 µM (inactive) | > 100 µM (inactive)
O=C(O)c1ccccc1/C=N/N=C1c2ccccc2-c2ccccc21 | 26.7 µM (inactive) | 31 µM (inactive) | 28.6 µM (inactive) | 52.8 µM (inactive) | 30.7 µM (inactive) | 3.94 µM (inactive) |  | 29.3 µM (inactive) | 44.1 µM (inactive) | 29 µM (inactive) | 51.2 µM (inactive) | 29.6 µM (inactive) | 42.7 µM (inactive) | 29 µM (inactive) | 37.5 µM (inactive) | 44.8 µM | 27.9 µM (inactive) | 23.3 µM (inactive) | 25.5 µM (inactive)
CN(C)C(=S)SCC(=O)Nc1ccccc1 | > 100 µM (inactive) | > 100 µM (inactive) | 57.9 µM (inactive) | > 100 µM (inactive) | > 100 µM (inactive) | > 100 µM (inactive) | > 100 µM (inactive) | > 100 µM (inactive) | > 100 µM (inactive) | > 100 µM (inactive) | 80.4 µM (inactive) | > 100 µM (inactive) | > 100 µM (inactive) | > 100 µM (inactive) | > 100 µM (inactive) | > 100 µM |  | > 100 µM (inactive) | > 100 µM (inactive)
OC(c1ccccc1)c1c(-c2ccccc2)[nH]c(-c2ccccc2)c1C(O)c1ccccc1 (centres undefined) | 3.06 µM (inactive) | 2.84 µM (inactive) | 3.27 µM (inactive) | 2.69 µM (inactive) | 4.86 µM (inactive) | 3.76 µM (inactive) |  | 3.75 µM (inactive) | 1.95 µM (inactive) | 3.21 µM (inactive) | 3.4 µM (inactive) | 4.38 µM (inactive) | 5.28 µM (inactive) | 2.88 µM (inactive) | 2.59 µM (inactive) | 3.76 µM | 2.95 µM (inactive) | 2.59 µM (inactive) | 2.65 µM (inactive)
O=C(O)CCC(NC(=O)c1ccc(Nc2cnc3ccc(C(F)(F)F)cc3n2)cc1)C(=O)O (centres undefined) | > 100 µM (inactive) | > 100 µM (inactive) |  | > 100 µM (inactive) | > 100 µM (inactive) | 45.9 µM (inactive) | > 100 µM (inactive) | > 100 µM (inactive) | > 100 µM (inactive) | > 100 µM (inactive) | > 100 µM (inactive) | > 100 µM (inactive) | > 100 µM (inactive) | > 100 µM (inactive) | > 100 µM (inactive) | > 100 µM | > 100 µM (inactive) | > 100 µM (inactive) | > 100 µM (inactive)
CC(C)C1SCc2nc3ccccc3n21 (centres undefined) | 46.3 µM (inactive) | 30.6 µM (inactive) | 71.3 µM (inactive) | 29.4 µM (inactive) | 58.1 µM (inactive) | 36.1 µM (inactive) |  | 30.5 µM (inactive) | 29.8 µM (inactive) | 32.4 µM (inactive) | 68.1 µM (inactive) | 84.9 µM (inactive) | 91.4 µM (inactive) | 39.6 µM (inactive) | 38.9 µM (inactive) | 50.1 µM | 38.2 µM (inactive) | 37.2 µM (inactive) | 34.8 µM (inactive)
N#CCCNCCN(CCN(C(=O)Nc1ccccc1)c1ccccc1)C(=O)Nc1ccccc1 | 37.9 µM (inactive) | 21.4 µM (inactive) | 24.8 µM (inactive) | 58.3 µM (inactive) | 41.5 µM (inactive) | 59.2 µM (inactive) | 25.8 µM (inactive) | 51.8 µM (inactive) | 38.4 µM (inactive) | 67.1 µM (inactive) | 18.7 µM (inactive) | 37.1 µM (inactive) | 66.8 µM (inactive) | 31.7 µM (inactive) | 47 µM (inactive) | 41.5 µM |  | 23.4 µM (inactive) | 78.9 µM (inactive)
Cc1cc(C2(c3cc(C)c(O)c(C(=O)O)c3)OS(=O)(=O)c3ccccc32)cc(C(=O)O)c1O | > 100 µM (inactive) | > 100 µM (inactive) | > 100 µM (inactive) | > 100 µM (inactive) | > 100 µM (inactive) | > 100 µM (inactive) | > 100 µM (inactive) | > 100 µM (inactive) | > 100 µM (inactive) | > 100 µM (inactive) | > 100 µM (inactive) | > 100 µM (inactive) | > 100 µM (inactive) | > 100 µM (inactive) | > 100 µM (inactive) | > 100 µM | > 100 µM (inactive) | > 100 µM (inactive) | 
O=C(O)C1(Cc2ccc3c(c2)CCC3)Cc2ccccc2C1=O (centres undefined) | 50.1 µM (inactive) | 39 µM (inactive) |  | 58.1 µM (inactive) | 40.9 µM (inactive) | 47.4 µM (inactive) | 38.8 µM (inactive) | 33.6 µM (inactive) | 46 µM (inactive) | 63.2 µM (inactive) | > 100 µM (inactive) | > 100 µM (inactive) | 75.3 µM (inactive) | > 100 µM (inactive) | > 100 µM (inactive) | 34.8 µM | 49.1 µM (inactive) | > 100 µM (inactive) | 35.5 µM (inactive)
Cc1cc(=O)[nH]c(-n2[nH]c(C)c(CCO)c2=O)n1 | > 100 µM (inactive) | > 100 µM (inactive) | > 100 µM (inactive) | > 100 µM (inactive) | > 100 µM (inactive) | > 100 µM (inactive) |  | > 100 µM (inactive) | > 100 µM (inactive) | > 100 µM (inactive) | > 100 µM (inactive) | > 100 µM (inactive) | > 100 µM (inactive) | > 100 µM (inactive) | > 100 µM (inactive) | > 100 µM | > 100 µM (inactive) | > 100 µM (inactive) | > 100 µM (inactive)
O=C(O)/C=C/C(=O)O [FUMARIC ACID] | > 100 µM (inactive) | > 100 µM (inactive) | > 100 µM (inactive) | > 100 µM (inactive) | > 100 µM (inactive) | > 100 µM (inactive) | > 100 µM (inactive) | > 100 µM (inactive) | > 100 µM (inactive) | > 100 µM (inactive) | > 100 µM (inactive) | > 100 µM (inactive) | > 100 µM (inactive) |  | > 100 µM (inactive) | > 100 µM | > 100 µM (inactive) | > 100 µM (inactive) | > 100 µM (inactive)

From ChEMBL document CHEMBL1201862, “PubChem BioAssay data set” (2004)
